According to the supplement of paper PMC4932681:
Several values for one entry are separate records, joined by “and”; a condition that tells them apart may be missing. Equal entries are not always repeated.

Columns and labels:
MCF-7 [1] = assay: drug sensitivity score (DSS) (DSS (dimensionless)); higher = more sensitive; extreme values may be limits of the assay; conditions: 72 h
In short: (§1)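 CellTiter-Glo viability was the readout, taken on a PHERAstar and normalised to vehicle-only and positive controls. It was measured after breast cancer cell lines and their resistant derivatives spent 72 h at 37 °C in 384-well plates containing library drugs at five concentrations spanning a 10 000-fold range, with 1 μM of the selecting drug in the medium of resistant lines. From logistic dose–response fits in the Breeze pipeline came drug sensitivity score, relative IC50 (curve midpoint) and top-dose inhibition.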

ZR-75-1 Tam1 [2] = assay: as above; conditions: 4-OH-tamoxifen in medium 1 µM; 72 h
In short: as §1

BT-474 [3] = assay: as above; conditions: 72 h
In short: as §1

ZR-75-1 [4] = assay: as above; conditions: 72 h
In short: as §1

ZR-75-1 Tam2 [5] = assay: as above; conditions: 4-OH-tamoxifen in medium 1 µM; 72 h
In short: as §1

T-47D Tam1 [6] = assay: as above; conditions: 4-OH-tamoxifen in medium 1 µM; 72 h
In short: as §1

MCF-7 Tam1 [7] = assay: as above; conditions: 4-OH-tamoxifen in medium 1 µM; 72 h
In short: as §1

T-47D Tam2 [8] = assay: as above; conditions: 4-OH-tamoxifen in medium 1 µM; 72 h
In short: as §1

T-47D [9] = assay: as above; conditions: 72 h
In short: as §1

BT-474 Tam1 [10] = assay: as above; conditions: 4-OH-tamoxifen in medium 1 µM; 72 h
In short: as §1

BT-474 Tam2 [11] = assay: as above; conditions: 4-OH-tamoxifen in medium 1 µM; 72 h
In short: as §1

MCF-7 [12] = assay: relative IC50 (midpoint of fitted logistic curve, plateau may be below 50% inhibition; CellTiter-Glo viability); higher = less potent; conditions: 72 h
In short: as §1

ZR-75-1 Tam1 [13] = assay: as above; conditions: 4-OH-tamoxifen in medium 1 µM; 72 h
In short: as §1

BT-474 [14] = assay: as above; conditions: 72 h
In short: as §1

ZR-75-1 [15] = assay: as above; conditions: 72 h
In short: as §1

ZR-75-1 Tam2 [16] = assay: as above; conditions: 4-OH-tamoxifen in medium 1 µM; 72 h
In short: as §1

T-47D Tam1 [17] = assay: as above; conditions: 4-OH-tamoxifen in medium 1 µM; 72 h
In short: as §1

MCF-7 Tam1 [18] = assay: as above; conditions: 4-OH-tamoxifen in medium 1 µM; 72 h
In short: as §1

T-47D Tam2 [19] = assay: as above; conditions: 4-OH-tamoxifen in medium 1 µM; 72 h
In short: as §1

T-47D [20] = assay: as above; conditions: 72 h
In short: as §1

BT-474 Tam1 [21] = assay: as above; conditions: 4-OH-tamoxifen in medium 1 µM; 72 h
In short: as §1

BT-474 Tam2 [22] = assay: as above; conditions: 4-OH-tamoxifen in medium 1 µM; 72 h
In short: as §1

SMILES | drug sensitivity score (MCF-7 [1]; 4-OH-tamoxifen in medium 0 µM) | drug sensitivity score (MCF-7 [1]; 4-OH-tamoxifen in medium 1 µM) | drug sensitivity score (ZR-75-1 Tam1 [2]) | drug sensitivity score (BT-474 [3]; 4-OH-tamoxifen in medium 0 µM) | drug sensitivity score (BT-474 [3]; 4-OH-tamoxifen in medium 1 µM) | drug sensitivity score (ZR-75-1 [4]; 4-OH-tamoxifen in medium 0 µM) | drug sensitivity score (ZR-75-1 [4]; 4-OH-tamoxifen in medium 1 µM) | drug sensitivity score (ZR-75-1 Tam2 [5]) | drug sensitivity score (T-47D Tam1 [6]) | drug sensitivity score (MCF-7 Tam1 [7]) | drug sensitivity score (T-47D Tam2 [8]) | drug sensitivity score (T-47D [9]; 4-OH-tamoxifen in medium 0 µM) | drug sensitivity score (T-47D [9]; 4-OH-tamoxifen in medium 1 µM) | drug sensitivity score (BT-474 Tam1 [10]) | drug sensitivity score (BT-474 Tam2 [11]) | relative IC50 (MCF-7 [12]; 4-OH-tamoxifen in medium 1 µM) [µM] | relative IC50 (ZR-75-1 Tam1 [13]) [µM] | relative IC50 (BT-474 [14]; 4-OH-tamoxifen in medium 0 µM) [µM] | relative IC50 (BT-474 [14]; 4-OH-tamoxifen in medium 1 µM) [µM] | relative IC50 (ZR-75-1 [15]; 4-OH-tamoxifen in medium 0 µM) [µM] | relative IC50 (ZR-75-1 [15]; 4-OH-tamoxifen in medium 1 µM) [µM] | relative IC50 (ZR-75-1 Tam2 [16]) [µM] | relative IC50 (T-47D Tam1 [17]) | relative IC50 (MCF-7 Tam1 [18]) [µM] | relative IC50 (T-47D Tam2 [19]) | relative IC50 (T-47D [20]; 4-OH-tamoxifen in medium 0 µM) [µM] | relative IC50 (T-47D [20]; 4-OH-tamoxifen in medium 1 µM) [µM] | relative IC50 (BT-474 Tam1 [21]) | relative IC50 (BT-474 Tam2 [22]) [µM] | relative IC50 (MCF-7 [12]; 4-OH-tamoxifen in medium 0 µM) [µM]
Nc1ncn([C@H]2C[C@H](O)[C@@H](CO)O2)c(=O)n1 [Decitabine (Dacogen)] | 1.25 | 0 | 0 | 0 | 0 | 0 | 0 | 0 | 0 | 0 | 0 | 0 | 0 | 0 | 0 | > 10 | > 10 | > 10 | > 10 | > 10 | > 10 | > 10 | > 10 µM | > 10 | > 10 µM | > 10 | > 10 | > 10 µM | > 10 | 
O=P(O)(NCCCl)NCCCl [Ifosfamide mustard] | 0 | 0 | 0 | 0 | 0 | 0 | 0 | 0 | 0 | 0 | 0 | 0 | 0 | 0 | 0 | > 10 | > 10 | > 10 | > 10 | > 10 | > 10 | > 10 | > 10 µM | > 10 | > 10 µM | > 10 | > 10 | > 10 µM | > 10 | > 10
C[C@]12C=CC(=O)C=C1CC[C@@H]1[C@@H]2[C@@H](O)C[C@@]2(C)[C@H]1CC[C@]2(O)C(=O)CO [Prednisolone] | 0.324 | 0.407 | 0 | 0 | 0 | 0 | 0 | 0 | 0 | 0 | 0 | 0 | 0 | 0 | 0 |  | > 10 | > 10 | > 10 | > 10 | > 10 | > 10 | > 10 µM | > 10 | > 10 µM | > 10 | > 10 | > 10 µM | > 10 | 
CNC(=O)c1cc(Oc2ccc(NC(=O)Nc3ccc(Cl)c(C(F)(F)F)c3)cc2)ccn1 [Sorafenib] | 0 | 0 | 0 | 0 | 0 | 0 | 0 | 0 | 0 | 0 | 0 | 0 | 0 | 0.0104 | 0 | > 1 | > 1 | > 1 | > 1 | > 1 | > 1 | > 1 | > 1 µM | > 1 | > 1 µM | > 1 | > 1 |  | > 1 | > 1
Cc1cn(-c2cc(NC(=O)c3ccc(C)c(Nc4nccc(-c5cccnc5)n4)c3)cc(C(F)(F)F)c2)cn1 [Nilotinib] | 0 | 0 | 0 | 0 | 0 | 0 | 0 | 0 | 0 | 0 | 0 | 0 | 0 | 1.63 | 0 | > 10 | > 10 | > 10 | > 10 | > 10 | > 10 | > 10 | > 10 µM | > 10 | > 10 µM | > 10 | > 10 |  | > 10 | > 10
COc1cc(CCc2cc(NC(=O)c3ccc(N4CC(C)NC(C)C4)cc3)n[nH]2)cc(OC)c1 (stereo not given) [AZD4547] | 0 | 0 | 0 | 0 | 0 | 0 | 0 | 0 | 0 | 0 | 0 | 0 | 0 | 0 | 0 | > 1 | > 1 | > 1 | > 1 | > 1 | > 1 | > 1 | > 1 µM | > 1 | > 1 µM | > 1 | > 1 |  | > 1 | > 1
Cc1cnc(NC(=O)Nc2cc(Br)c(C)cc2OC[C@@H]2CNCCO2)cn1 | 2.37 | 0.181 | 0 | 0 | 0 | 0 | 0 | 0 | 0 | 0 | 0 | 0 | 0 | 0 | 0 |  | > 1 | > 1 | > 1 | > 1 | > 1 | > 1 | > 1 µM | > 1 | > 1 µM | > 1 | > 1 | > 1 µM | > 1 | 
CO[C@@H](C(=O)N1Cc2[nH]nc(NC(=O)c3ccc(N4CCN(C)CC4)cc3)c2C1)c1ccccc1 | 0 | 0 | 0 | 0 | 0 | 0 | 0 | 0 | 4.24 | 0 | 3.95 | 2.94 | 1.25 | 0 | 0 | > 10 | > 10 | > 10 | > 10 | > 10 | > 10 | > 10 | 1.03 µM | > 10 | 0.833 µM |  |  | > 10 µM | > 10 | > 10
Cn1nnc2c(C(N)=O)ncn2c1=O [Temozolomide] | 0 | 0 | 0 | 0 | 0 | 0.0165 | 0 | 0 | 0 | 0 | 0 | 0 | 0 | 0.313 | 0 | > 10 | > 10 | > 10 | > 10 |  | > 10 | > 10 | > 10 µM | > 10 | > 10 µM | > 10 | > 10 |  | > 10 | > 10
Cc1cc2c(F)c(Oc3ncnn4cc(OC[C@@H](C)O)c(C)c34)ccc2[nH]1 [Brivanib] | 0 | 0 | 0 | 0 | 0 | 0 | 0 | 0 | 0 | 0 | 0 | 0 | 0 | 0 | 0 | > 1 | > 1 | > 1 | > 1 | > 1 | > 1 | > 1 | > 1 µM | > 1 | > 1 µM | > 1 | > 1 |  | > 1 | > 1
C=CCn1c(=O)c2cnc(Nc3ccc(N4CCN(C)CC4)cc3)nc2n1-c1cccc(C(C)(C)O)n1 [MK-1775] | 7.89 | 5.16 | 0 | 2.85 | 4.97 | 0.795 | 0.472 | 0 | 4.22 | 0 | 4.14 | 2.12 | 1.93 | 3.33 | 2.77 | 0.553 | > 10 |  | 1.04 |  |  | > 10 | 1.12 µM | > 10 | 1.08 µM |  |  | 1.78 µM | 0.857 | 0.369
C[C@@]1(C(=O)Nc2ccc(F)nc2)CCCN1c1nc(Nc2cc(C3CC3)n[nH]2)c2cccn2n1 | 17.7 | 21 | 0 | 0.215 | 0.473 | 0 | 0 | 0 | 4.88 | 13.2 | 6.16 | 5.37 | 7.74 | 0.49 | 0 | 0.0802 | > 10 |  |  | > 10 | > 10 | > 10 | 1.16 µM | 0.197 | 1.14 µM | 0.921 | 0.21 |  | > 10 | 0.0789
Cc1nc(Nc2ncc(C(=O)Nc3c(C)cccc3Cl)s2)cc(N2CCN(CCO)CC2)n1 [Dasatinib] |  |  | 0 | 0 | 0 | 0 | 0 | 0 | 8.54 and 7.6 | 0 | 8.11 and 4.97 | 0 |  | 2.9 and 1.26 |  | > 1 | > 1 | > 1 | > 1 | > 1 | > 1 | > 1 | 0.0103 µM and 0.0107 µM | > 1 | 0.00943 µM and 0.0164 µM | > 1 | 0.0416 | 0.13 µM and 0.374 µM | > 1 | > 1
COc1cc2c(Oc3ccc4[nH]c(C)cc4c3F)ncnc2cc1OCCCN1CCCC1 [Cediranib (AZD2171, Recentin)] | 0.0072 | 0 | 0 | 0 | 2.04 | 0 | 0 | 0 | 0 | 0 | 0 | 0 | 0.609 | 0.271 | 0 | > 1 | > 1 | > 1 | 0.304 | > 1 | > 1 | > 1 | > 1 µM | > 1 | > 1 µM | > 1 |  |  | > 1 | 
Cn1cncc1[C@@](N)(c1ccc(Cl)cc1)c1ccc2c(c1)c(-c1cccc(Cl)c1)cc(=O)n2C [Tipifarnib  (Zarnestra)] | 11 | 12.6 | 7.03 | 4.27 | 6.99 | 6.34 | 7.52 | 6.76 | 6.21 | 3.82 | 4.67 | 3.25 | 0.489 | 7.78 | 7.37 | 0.329 | 0.762 | 0.817 | 1.65 | 0.606 | 0.405 | 0.808 | 0.862 µM | 1.51 | 0.877 µM |  |  | 1.5 µM | 1.41 | 0.277
